Patent US20260182575A1, “MOLECULES HAVING PESTICIDAL UTILITY AND INTERMEDIATES AND PROCESSES RELATED THERETO” (CORTEVA AGRISCIENCE LLC, priority 2022, published 2026)
“And” between values parts separate entries of the source, which are not always exact repeats. Equal entries are not always repeated.

Experiments:
[1] = system: Soybean Looper (Chrysodeixis includens, PSEPIN, SBL); assay: Bioassay 4: soybean looper, artificial diet, 128-cell tray; assay type: in vivo; settings: AI alone
Summary of the method: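 Test solutions (0.0000004–0.04% w/v, i.e. 0.00005–5 μg/cm² on diet) were pipetted onto artificial lepidopteran diet and one 2nd-instar larva was placed per cell, 8 replicates per species, held at ~26° C. Live larvae were counted after 5 days; percent control used Abbott's correction against a solvent check.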

[2] = system: Green Peach Aphid (Myzus persicae, MYZUPE, GPA); assay: Bioassay 1: green peach aphid, cabbage seedling foliar spray; assay type: in vivo; settings: for Average % Control AI: 3 days
Procedure: Bioassay 1: Green Peach Aphid (Myzus persicae, MYZUPE, “GPA”).
Stock solutions of F1 and various active ingredients were prepared initially at a concentration of 4 milligrams per milliliter (mg/mL) for F1 and 0.1 mg/mL for the active ingredients, respectively, using a 1:1 mixture of acetone:methanol as a diluent. Stock solutions were prepared with F1 as well as for each of the active ingredients individually. Test solutions were prepared from the stock solutions. Test solutions were prepared containing F1, the individual active ingredients, and mixtures of F1 with each of the active ingredients. The test solutions for F1 and the individual active ingredients were prepared by adding 750 microliters (μL) of stock solution to a 25 mL glass vial, then adding 750 μL of 1:1 acetone:methanol solvent, followed by the addition of 13.5 mL water with 0.025% Tween® 20 to create a 0.0005% (weight/volume (w/v)) solution. The test solutions containing mixtures of F1, and the individual active ingredients were prepared by adding 750 μL of the active ingredient stock solution to a 25 mL glass vial, followed by 750 μL of the F1 stock solution, then by the addition of 13.5 mL water with 0.025% Tween® 20 to create a test solution containing 0.0005% (w/v) F1 and 0.0005% (w/v) of the active ingredient. Each test solution was serially diluted to create desired doses of test solutions (0.0005% (w/v), 0.000125% (w/v), 0.00003125% (w/v), 0.0000078% (w/v), 0.00000195% (w/v), and 0.0000005% (w/v)). In test solutions containing mixtures of F1 and the active ingredients, the active ingredients were diluted as described above, but the concentration of F1 was held constant (0.04% (w/v)).
The test solutions were tested against GPA using the following procedure: cabbage seedlings, grown in 3-inch pots with 2-3 small (3-5 centimeter (cm)) true leaves, were used as test substrate. The seedlings were infested with 20-50 GPA (wingless adult and nymph stages) one day prior to chemical application. Four pots with individual seedlings were used for each treatment. A hand-held aspirator-type sprayer was used for spraying a solution to both sides of […] leaves until runoff. Reference plants (solvent check) were sprayed with the diluent only (0.025% Tween® 20 and 10% acetone:methanol (1:1) in water). Treated plants were held in a holding room for three days at approximately 25° C. and ambient relative humidity (RH about 20% to about 45%) prior to grading. Evaluation was conducted by counting the number of live aphids per plant under a microscope three days after treatment. Percent control was measured using Abbott's correction formula (W. S. Abbott, J. Econ. Entomol. 18 (1925), pp. 265-267) as follows:
where X=No. of live aphids on solvent check plants and Y=No. of live aphids on treated plants. In Table B1 the “Expected % Control” was calculated using the method described in Colby S. R., Weeds, 1967, 15, 20-22. Bioassay 2: Sweet Potato Whitefly (Bemisia tabaci, BEMITA, “SPW”).

[3] = AI alone at the rate of Wt Ratio F1:AI 1:40000 (F1 0.04)
[4] = AI alone at the rate of Wt Ratio F1:AI 1:2564 (F1 0.04)
[5] = AI alone at the rate of Wt Ratio F1:AI 1:640 (F1 0.04)

Cc1c(COC(=O)[C@@H]2[C@H](/C=C(\Cl)C(F)(F)F)C2(C)C)cccc1-c1ccccc1 (racemic) [Bifenthrin]
Average % Control AI ([1]; 0.000004 wt %): 0.0%
Average % Control AI ([1]; 0.00004 wt %): 0.0%
Average % Control AI [2, 3]: 16.3%

C[C@]1(COC(=O)C2CC2)[C@@H]2C[C@H](O)[C@@]3(C)Oc4cc(-c5cccnc5)oc(=O)c4[C@H](O)[C@@H]3[C@@]2(C)CC[C@@H]1OC(=O)C1CC1 [Afidopyropen]
Average % Control AI ([1]; 0.000004 wt %): 0.0%
Average % Control AI ([1]; 0.00004 wt %): 0.0%

Cc1ccc(COCC(F)(F)F)c(N2C(=O)CS/C2=N\C(=O)Nc2ccc(-c3ncn(-c4ccc(OC(F)(F)F)cc4)n3)cc2F)c1 [F1]
Average % Control F1 ([2]; F1 alone, Wt % 0.04 (10^-6), cabbage spray, 3 days after treatment): 8.8% and 7.1% and 15.8%

CON=CNC(=O)c1ccc(C2=NOC(c3cc(Cl)cc(Cl)c3)(C(F)(F)F)C2)cc1C (centres unmarked) [Fluxametamide]
Average % Control AI ([1]; 0.000004 wt %): 12.5%
Average % Control AI [2, 4]: 23.1%

COC(=O)N(C(=O)N1CO[C@@]2(C(=O)OC)Cc3cc(Cl)ccc3C2=N1)c1ccc(OC(F)(F)F)cc1 [Indoxacarb]
Average % Control AI ([1]; 0.000004 wt %): 0.0%
Average % Control AI [2, 5]: 10.1%
Average % Control AI [2, 3]: 0.0%

CC1=NNC(=O)N(/N=C/c2cccnc2)C1 [Pymetrozine]
Average % Control AI ([1]; 0.000004 wt %): 12.5%
Average % Control AI [2, 5]: 47.6%
Average % Control AI [2, 3]: 15.4%

CN1COCN(Cc2cnc(Cl)s2)/C1=N\[N+](=O)[O-] [Thiamethoxam]
Average % Control AI ([1]; 0.000004 wt %): 0.0%
Average % Control AI ([2]; AI alone at the rate of Wt Ratio F1:AI 1:10256 (F1 0.04)): 8.5%
Average % Control AI [2, 3]: 0.0%

Chlorfenapyr
Average % Control AI ([1]; 0.000004 wt %): 25.0%
Average % Control AI ([1]; 0.00004 wt %): 37.5%
Average % Control AI [2, 4]: 10.1%
